# Values of other authors in PubChem BioAssay AID1259409 (Chemical Carcinogenesis Research Information System (CCRIS), 2018).
# Tested on: rodent chemically induced tumor inhibition, incidence and multiplicity
# Assay: CCRIS tumor inhibitor studies
# Settings: Promoter: NONE; for outcome: Carcinogen: OCHRATOXIN A (303-47-9), Strain/Sex: LEWIS/FEMALE
structure (smiles),measurement,setting,value
O=S(=O)(O)CCS,"tumour outcome (control, treated, inhibition, significance)","Carcinogen: 17BETA-ESTRADIOL, 50-28-2, Dose [Inhibitor]: 0, 0.05% IN DRINKING WATER 5 D/WK BEGINNING 5 D POST CARCINOGEN DOSE (STUDY DURATION: 7.5 MO), Route [Inhibitor]: ORAL, Species: HAMSTER, Strain/Sex: SYRIAN/MALE, Target Tissue: Type of Lesion: KIDNEY: TUMOR, Dose [Carcinogen]: 25 MG PELLET REPLACED WITH A SECOND PELLET AFTER 4 MO","13/13 (100%), 15/19 (79%), 21%, not calculated"
same,"tumour outcome (control, treated, inhibition, significance)","Carcinogen: CYCLOPHOSPHAMIDE, 50-18-0, Dose [Inhibitor]: 5 MG/KG BW IN DRINKING WATER 5/WK FOR 20 MO SIMULTANEOUSLY WITH CARCINOGEN TREATMENT (STUDY DURATION: 20 MO), Route [Inhibitor]: ORAL, Species: RAT, Strain/Sex: SPRAGUE-DAWLEY/MALE, Target Tissue: Type of Lesion: NERVOUS TISSUE: NEOPLASM, Dose [Carcinogen]: 2.5 MG/KG BW IN DRINKING WATER 5/WK FOR 20","14%, 19%, -36%, not calculated"
same,"tumour outcome (control, treated, inhibition, significance)","Carcinogen: CYCLOPHOSPHAMIDE, 50-18-0, Dose [Inhibitor]: 5 MG/KG BW IN DRINKING WATER 5/WK FOR 20 MO SIMULTANEOUSLY WITH CARCINOGEN TREATMENT (STUDY DURATION: 20 MO), Route [Inhibitor]: ORAL, Species: RAT, Strain/Sex: SPRAGUE-DAWLEY/MALE, Target Tissue: Type of Lesion: URINARY BLADDER: TUMOR, Dose [Carcinogen]: 2.5 MG/KG BW IN DRINKING WATER 5/WK FOR 20 MO","30%, 22%, 27%, p>0.003*"
same,"tumour outcome (control, treated, inhibition, significance)","Carcinogen: CYCLOPHOSPHAMIDE, 50-18-0, Dose [Inhibitor]: 5 MG/KG BW IN DRINKING WATER 5/WK FOR DURATION OF STUDY SIMULTANEOUSLY WITH CARCINOGEN TREATMENT (STUDY DURATION: LIFE), Route [Inhibitor]: ORAL, Species: RAT, Strain/Sex: SPRAGUE-DAWLEY/MALE, Target Tissue: Type of Lesion: URINARY BLADDER: PAPILLOMA, CARCINOMA, Dose [Carcinogen]: 2.5 MG/KG BW IN DRINKING WATER 5/WK FOR DURATION OF STUDY","32/100 (32%), 12/50 (24%), 25%, not calculated"
same,"tumour outcome (control, treated, inhibition, significance)","Carcinogen: CYCLOPHOSPHAMIDE, 50-18-0, Dose [Inhibitor]: 15 MG/KG BW IN DRINKING WATER 5/WK FOR 20 MO SIMULTANEOUSLY WITH CARCINOGEN TREATMENT (STUDY DURATION: 20 MO), Route [Inhibitor]: ORAL, Species: RAT, Strain/Sex: SPRAGUE-DAWLEY/MALE, Target Tissue: Type of Lesion: NERVOUS TISSUE: NEOPLASM, Dose [Carcinogen]: 2.5 MG/KG BW IN DRINKING WATER 5/WK FOR 20 MO","14%, 24%, -71%, not calculated"
same,"tumour outcome (control, treated, inhibition, significance)","Carcinogen: CYCLOPHOSPHAMIDE, 50-18-0, Dose [Inhibitor]: 15 MG/KG BW IN DRINKING WATER 5/WK FOR 20 MO SIMULTANEOUSLY WITH CARCINOGEN TREATMENT (STUDY DURATION: 20 MO), Route [Inhibitor]: ORAL, Species: RAT, Strain/Sex: SPRAGUE-DAWLEY/MALE, Target Tissue: Type of Lesion: URINARY BLADDER: TUMOR, Dose [Carcinogen]: 2.5 MG/KG BW IN DRINKING WATER 5/WK FOR 20 MO","30%, 7%, 77%, p>0.003*"
same,"tumour outcome (control, treated, inhibition, significance)","Carcinogen: CYCLOPHOSPHAMIDE, 50-18-0, Dose [Inhibitor]: 15 MG/KG BW IN DRINKING WATER 5/WK FOR DURATION OF STUDY SIMULTANEOUSLY WITH CARCINOGEN TREATMENT (STUDY DURATION: LIFE), Route [Inhibitor]: ORAL, Species: RAT, Strain/Sex: SPRAGUE-DAWLEY/MALE, Target Tissue: Type of Lesion: URINARY BLADDER: PAPILLOMA, CARCINOMA, Dose [Carcinogen]: 2.5 MG/KG BW IN DRINKING WATER 5/WK FOR DURATION OF STUDY","32/100 (32%), 1/50 (2%), 94%, not calculated"
same,"tumour outcome (control, treated, inhibition, significance)","Carcinogen: N-BUTYL-N(4-HYDROXYBUTYL)NITROSAMINE (3817-11-6), Dose [Inhibitor]: 0.05% IN DRINKING WATER FOR 15 WK (STUDY DURATION: 15 WK), Route [Inhibitor]: ORAL, Species: RAT, Strain/Sex: WISTAR/MALE, Target Tissue: Type of Lesion: URINARY BLADDER: PAPILLOMA, Dose [Carcinogen]: 0.025% IN DRINKING WATER FOR 15 WK","38/40 (95%), 18/30 (60%), 37%, p< 0.01"
same,"tumour outcome (control, treated, inhibition, significance)","Carcinogen: N-BUTYL-N(4-HYDROXYBUTYL)NITROSAMINE (3817-11-6), Dose [Inhibitor]: 0.05% IN DRINKING WATER FOR 15 WK (STUDY DURATION: 15 WK), Route [Inhibitor]: ORAL, Species: RAT, Strain/Sex: WISTAR/MALE, Target Tissue: Type of Lesion: URINARY BLADDER: TRANSITIONAL CELL CARCINOMA, Dose [Carcinogen]: 0.025% IN DRINKING WATER FOR 15 WK","4/40 (10%), 1/30 (3%), 70%, not significant"
same,"tumour outcome (control, treated, inhibition, significance)","Carcinogen: N-BUTYL-N-(4-HYDROXYBUTYL)NITROSAMINE, 3817-11-6, Dose [Inhibitor]: 350 MG/KG IN DRINKING WATER 5/WK FOR 39 WK SIMULTANEOUSLY WITH CARCINOGEN TREATMENT FOLLOWED BY OBSERVATION FOR LIFE (ST, Route [Inhibitor]: ORAL, Species: RAT, Strain/Sex: SPRAGUE-DAWLEY/MALE, Target Tissue: Type of Lesion: URINARY BLADDER: PAPILLOMATOUS CARCINOMA, TRANSITIONAL CELL CARCINOMA, Dose [Carcinogen]: 70 MG/KG 2/WK FOR 39 WK SIMULTANEOUSLY WITH AGENT TREATMENT","96%, 91%, 5%, not significant"
same,outcome,"Dose [Inhibitor]: 1 G/L IN DRINKING WATER FOR LIFETIME (STUDY DURATION: LIFETIME), Route [Inhibitor]: GAVAGE, Species: RAT, Target Tissue: Type of Lesion: URINARY BLADDER: TRANSITIONAL CELL CARCINOMA, Dose [Carcinogen]: 0.4 MG/KG BW 3X/WK FOR LIFETIME","0/20 (0%), 0/20 (0%), 0%, not significant"
same,outcome,"Dose [Inhibitor]: 1 G/L IN DRINKING WATER FOR LIFETIME (STUDY DURATION: LIFETIME), Route [Inhibitor]: GAVAGE, Species: RAT, Target Tissue: Type of Lesion: URINARY BLADDER: TRANSITIONAL CELL PAPILLOMA, Dose [Carcinogen]: 0.4 MG/KG BW 3X/WK FOR LIFETIME","0/20 (0%), 0/20 (0%), 0%, not significant"
same,"tumour outcome (control, treated, inhibition, significance)","Carcinogen: OCHRATOXIN A, 303-47-9, Dose [Inhibitor]: 1 G/L IN DRINKING WATER FOR LIFETIME (STUDY DURATION: LIFETIME), Route [Inhibitor]: GAVAGE, Species: RAT, Strain/Sex: DA/FEMALE, Target Tissue: Type of Lesion: URINARY BLADDER: TRANSITIONAL CELL PAPILLOMA, Dose [Carcinogen]: 0.4 MG/KG BW 3X/WK FOR LIFETIME","2/40 (6%), 0/40 (0%), 100%, not significant"
same,"tumour outcome (control, treated, inhibition, significance)","Carcinogen: OCHRATOXIN A, 303-47-9, Dose [Inhibitor]: 1 G/L IN DRINKING WATER FOR LIFETIME (STUDY DURATION: LIFETIME), Route [Inhibitor]: GAVAGE, Species: RAT, Strain/Sex: DA/MALE, Target Tissue: Type of Lesion: URINARY BLADDER: TRANSITIONAL CELL CARCINOMA, Dose [Carcinogen]: 0.4 MG/KG BW 3X/WK FOR LIFETIME","2/20 (11%), 0/20 (0%), 100%, not significant"
